# Results published in US7049331B2, “1,2,4-thiadiazole derivatives as melanocortin receptor modulators” (Ortho-McNeil Pharmaceutical, Inc., priority 2001, dated 2006).
# Like-named read-outs stand apart in the source and are kept apart here.
# How the values were obtained:
# Food-Deprived Rats = assay: Rodent Feeding: Food Intake in Food-Deprived Rats (MC-4); assay type: in vivo, rat; conditions: Rattus norvegicus
# From the text: Rodent Feeding: Food Intake in Food-Deprived Rats (MC-4)
# Male Long-Evans rats (180–200 grams) were housed individually and maintained on a once-a-day feeding schedule (i.e.10 a.m. until 4 p.m.) for five days following quarantine to allow the animals to acclimate to feeding on powdered chow (#5002 PMI Certified Rodent Meal) during the allotted time. The chow was made available in an open jar, anchored in the cage by a wire, with a metal follower covering the food to minimize spillage. Water was available ad-libitum.
# Animals were fasted for 18 hours prior to testing. At the end of the fasting period, animals were administered either a test compound or vehicle. Vehicle and test compound were administered either orally (5 mL/kg) 60 minutes prior to the experiment, subcutaneously (1 mL/kg) 30 minutes prior to the experiment, or intraperitoneally (1 mL/kg) 30 minutes prior to the experiment. Test compounds were administered orally as a suspension in aqueous 0.5% methylcellulose-0.4% Tween 80, or intraperitoneally as a solution or suspension in PEG 200; compound concentrations typically ranged from 1 mg/kg to 100 mg/kg, preferably from 10–30 mg/kg. Food intake was measured at 2, 4, and 6 hours after administration by weighing the special jar containing the food before the experiment and at the specified times. Upon completion of the experiment, all animals were given a one-week washout period before re-testing.
# Following the procedure described above, select compounds of the present invention were tested to measure the effect on food intake in fasted rats, as listed in Table 5 and 6.
# Cortical Cells = assay: Neurite Cell Outgrowth Assay, cortical cells; assay type: cell-based; conditions: Rattus norvegicus; 50 nM; percent change over the vehicle response; NA = no change/not active
# In short: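 Rat E18 hippocampal or cortical neurons plated at 30,000 cells/well, treated 24 h after plating with compound at 50 nM, refreshed on day 3. At one week, fixed and MAP-2 immunostained with FITC secondary, read by fluorescence; outgrowth given as percent change versus vehicle.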
# [1] = system: Male Long-Evans rats, facial nerve compression; assay: In vivo Facial Nerve Compression Model; parameters: species or system rat; conditions: for Percent Recovery of whisker movement D9 / Percent Recovery of whisker movement D10 / Percent Recovery of whisker movement D11 / Percent Recovery of whisker movement D12 / Percent Recovery of whisker movement D13 / Percent Recovery of whisker movement D14: test compounds p.o. 20 mg/kg bid, αMSH s.c. 70 ug/each 48 hr; for Percent Recovery of whisker movement D9: % of sham-operated side; for recovery time to restore whisker muscle movement: lesioned rats vs vehicle controls (p<0.05), p.o. 20 mg/kg bid
# From the text: The ability of test compound to provide neuro-protective or neuro-regenerative effects was investigated in a facial nerve compression model. Facial nerve motor axons arise exclusively from neurons within the pons in a well-defined nucleus. Facial nerve compression results in retrograde reactions proximal to the lesion site and Wallerian degeneration at its distal part, which causes diminished whisker movement on the lesioned side.
# Male Long-Evans rats (150–180 g) were anesthetized with 3–5% isoflorane for induction and 2% for maintenance during the surgical procedures. The right facial nerve was exposed and compressed with forceps for 30 sec at its exit from the stylomastoid foramen. The left facial nerve was sham-operated and served as an internal control. […] The following morphological abnormalities associated with the functional deficit were observed:
# After recovery from anesthesia, the rats were randomly divided into groups for dosing with vehicle, αMSH or test compound, with 6 animals per group. αMSH (s.c., 70 ug/each 48 hr) was used as a positive control. Test compounds were dosed p.o. at 20 mg/kg bid for 14 days. Restoration of whisker movement was monitored daily after the operation using two criteria:
# (1) frequency of whisker movement on the lesioned side relative to the opposite side (sham-operated) which served as the baseline control
# (2) semi-quantitative measurements (0 to 4+) on strength of the whisker muscles, characterized based on observation of the percentage of moved whiskers, muscle tone of whisker muscles, and the position of the nose. For all observations, the experimental design was blind to the behavioral observer.
# The recovery rate of the whisker movement was expressed as percentage of its own internal control (sham-operated), as listed in Table 8.
# [2] = ip, 2 h, ip, read-out: Change in Food Intake 0–2 hrs (%)
# [3] = ip, 6 h, ip, read-out: Change in Food Intake 2–6 hrs (%)
# [4] = po, 2 h, po, read-out: Change in Food Intake 0–2 hrs (%)
# [5] = po, 6 h, po, read-out: Change in Food Intake 2–6 hrs (%)
SMILES,change in vivo at 1 mg/kg (Food-Deprived Rats; [2]) [%],change in vivo at 3 mg/kg (Food-Deprived Rats; [2]) [%],change in vivo at 1 mg/kg (Food-Deprived Rats; [3]) [%],change in vivo at 3 mg/kg (Food-Deprived Rats; [3]) [%],change in vivo at 1 mg/kg (Food-Deprived Rats; [4]) [%],change in vivo at 3 mg/kg (Food-Deprived Rats; [4]) [%],change in vivo at 10 mg/kg (Food-Deprived Rats; [4]) [%],change in vivo at 30 mg/kg (Food-Deprived Rats; [4]) [%],change in vivo at 1 mg/kg (Food-Deprived Rats; [5]) [%],change in vivo at 3 mg/kg (Food-Deprived Rats; [5]) [%],change in vivo at 10 mg/kg (Food-Deprived Rats; [5]) [%],change in vivo at 30 mg/kg (Food-Deprived Rats; [5]) [%],activation at 0.05 µM (Cortical Cells) [%],Percent Recovery of whisker movement D9 [1] [%],Percent Recovery of whisker movement D10 [1] [%],Percent Recovery of whisker movement D11 [1] [%],Percent Recovery of whisker movement D12 [1] [%],Percent Recovery of whisker movement D13 [1] [%],Percent Recovery of whisker movement D14 [1] [%],recovery time to restore whisker muscle movement [1]
"COc1ccccc1-[n+]1sc(Nc2ccc(C)cc2)nc1-c1ccccc1.[Br-] [Compound 31, 2-(2-methoxyphenyl)-3-phenyl-5-p-tolylamino-[1,2,4]thiadiazol-2-ium]",-20.6,-37.8,-71.2,-50,1.2,-9,-10.1,-23.6,19.5,52.1,39.7,31.5,16,0,3.5,67.8,98.5,100,100,accelerated the recovery time
c1ccc(CNc2nc(-c3ccccc3)[n+](-c3ccccc3)s2)cc1 [Compound 84],,,,,,,,-7,,,,32,17,0,4.8,35.1,90.0,98.3,100,accelerated the recovery time
